“Also recorded” adds a separate entry of the source.
Tests used:
[1] = tested on: rat basophilic leukemia cells RBL-2H3; experiment: Degranulation inhibiting test (β-hexosaminidase release induced by antigen-antibody reaction); type: cell-based; settings: RBL-2H3 cells, anti-DNP-IgE/DNP-HSA stimulation; compounds 1, 2 and 6-sPalm-AA-2G at 40, 60 or 80 μM, oxatomide 75 μM; FIG. 1
Protocol: In this Example, the compound 1 and the compound 2 were evaluated in terms of the effect thereof to inhibit degranulation to be induced by stimulation of an antigen-antibody reaction. Degranulation was quantified based on, as an index, β-hexosaminidase release from rat basophilic leukemia cells RBL-2H3. Specifically, β-hexosaminidase is an enzyme released through degranulation of mast cells or basocytes, and through enzymatic reaction with a substrate, p-nitrophenyl-2-acetamide-2-deoxy-β-glucopyranoside, this increases the absorbance at 405 nm of the reaction liquid. Here, the degranulation inhibiting effect was evaluated from the absorbance change as an index of β-hexosaminidase release amount (degree of degranulation).
The compound 1 and the compound 2 were individually dissolved in a 0.25% dimethyl sulfoxide-containing MT buffer at a concentration of 40 μM, 60 μM or 80 μM to prepare solutions to be evaluation samples. On the other hand, as comparative samples, 6-sPalm-AA-2G was dissolved in a 0.25% dimethyl sulfoxide-containing MT buffer at a concentration of 40 μM, 60 μM or 80 μM to prepare solutions, and oxatomide was dissolved in a 0.25% dimethyl sulfoxide-containing MT buffer at a concentration of 75 μM to prepare a solution. […]

[2] = tested on: PCA (passive cutaneous anaphylaxis) reaction; experiment: PCA reaction inhibition test (Evans blue dye leakage in auricle); type: in vivo; settings: applied to auricle of ICR male mice, 90 nmol/auricle (6-sPalm-AA-2G 150 nmol/auricle), 3.5 hours before DNP-HSA-Evans blue i.v.; FIG. 2
Protocol: In this Example, the anti-allergy activity of the compound 1 and the compound 2 was evaluated based on, as an index, the inhibiting effect thereof against PCA (passive cutaneous anaphylaxis) reaction. PCA reaction is a series of cell reaction of an allergy reaction including immobilization of mast cells via an Fc part of immunoglobulin, antigen-antibody reaction on the cells, release of inflammatory mediator from the mast cells through the reaction and promotion of vascular permeability. Here, after an anti-DNP-IgE antibody solution has been subcutaneously administered to a test body, a solution containing a 2,4-dinitrophenyl group (DNP)-labeled human serum albumin (HSA) and a dye (Evans blue) (DNP-HSA-Evans blue solution) is intravenously administered, and the vascular permeability increase according to the antigen-antibody reaction is quantified by the absorbance increase owing to dye leakage from the blood vessel to the tissue to thereby evaluate the PCA reaction inhibiting effect. […]
An aqueous 1 N potassium hydroxide solution (0.5 mL) was added to the thus-cut auricle, and shaken at 37° C. overnight. After shaking, a mixed solution (3.25 mL) of aqueous 0.34 M phosphoric acid solution/acetone=13/5 (v/v) was added, and centrifuged by 700×g at 4° C. for 20 minutes, and the absorbance at 620 nm of the supernatant was measured. […]

Compound	β-hexosaminidase release inhibition ratio (degranulation inhibition ratio) [1]	dye leakage (relative absorbance at 620 nm, control = 100) [2]
CCCCCCCCCCCCCCCC(=O)NC[C@H](O)[C@H]1OC(=O)C(OC)=C1O [compound 2]	greatly higher than the degranulation inhibition ratio of the system added with 6-sPalm-AA-2G, and surpasses the degranulation inhibition ratio of the system added with oxatomide; also recorded: tends to have a higher degranulation inhibiting effect than the compound 1	lower than the dye leakage in the system with 6-sPalm-AA-2G; also recorded: suppressed more than that in the system where oxatomide had been applied; also recorded: tends to have a higher anti-allergy activity than the compound 1
CCCCCCCCCCCCCCCC(=O)OC[C@H](O)[C@H]1OC(=O)C(OC)=C1O [compound 1]	greatly higher than the degranulation inhibition ratio of the system added with 6-sPalm-AA-2G, and surpasses the degranulation inhibition ratio of the system added with oxatomide	lower than the dye leakage in the system with 6-sPalm-AA-2G
